# Measured values reported in PubChem BioAssay (NCI).
#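 1) Cells in 96-well plates. 2) Compound, 48 h, 5 concentrations. 3) Linear interpolation between surrounding doses. 4) Unreached endpoint = highest concentration. GI50 is the concentration that inhibits growth by half. TGI: total growth inhibition.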
# Assays:
# Experiment in all cases: inhibition of tumour cell growth, NCI panel, 48 h
# COLO 205 colon = test system: COLO 205 colon
# K-562 leukemia = test system: K-562 leukemia
# CCRF-CEM leukemia = test system: CCRF-CEM leukemia
# SK-MEL-2 melanoma = test system: SK-MEL-2 melanoma
# NCI-H460 lung = test system: NCI-H460 lung
# UACC-62 melanoma = test system: UACC-62 melanoma
# LOX IMVI melanoma = test system: LOX IMVI melanoma
# UO-31 renal = test system: UO-31 renal
# A498 renal = test system: A498 renal
# SR leukemia = test system: SR leukemia
# SK-MEL-5 melanoma = test system: SK-MEL-5 melanoma
# M14 melanoma = test system: M14 melanoma
# OVCAR-4 ovarian = test system: OVCAR-4 ovarian
# HOP-62 NSCLC = test system: HOP-62 NSCLC
# SW-620 colon = test system: SW-620 colon
# NCI/ADR-RES ovarian = test system: NCI/ADR-RES ovarian
# A549 NSCLC = test system: A549 NSCLC
# SNB-19 CNS = test system: SNB-19 CNS
# MDA-MB-435 = test system: MDA-MB-435
# SK-OV-3 ovarian = test system: SK-OV-3 ovarian
# DU-145 prostate = test system: DU-145 prostate
# ACHN renal = test system: ACHN renal
# T-47D breast = test system: T-47D breast
# UACC-257 melanoma = test system: UACC-257 melanoma
# RPMI-8226 leukemia = test system: RPMI-8226 leukemia
# HCT-15 colon = test system: HCT-15 colon
# OVCAR-5 ovarian = test system: OVCAR-5 ovarian
# MDA-N = test system: MDA-N
# SF-539 CNS = test system: SF-539 CNS
# SNB-75 CNS = test system: SNB-75 CNS
# SN12C renal = test system: SN12C renal
# SF-295 CNS = test system: SF-295 CNS
# TK-10 renal = test system: TK-10 renal
# OVCAR-8 ovarian = test system: OVCAR-8 ovarian
# NCI-H23 lung = test system: NCI-H23 lung
# PC-3 prostate = test system: PC-3 prostate
# SF-268 CNS = test system: SF-268 CNS
# KM12 colon = test system: KM12 colon
# MOLT-4 leukemia = test system: MOLT-4 leukemia
# EKVX NSCLC = test system: EKVX NSCLC
# MALME-3M melanoma = test system: MALME-3M melanoma
# NCI-H522 lung = test system: NCI-H522 lung
# HCC-2998 colon = test system: HCC-2998 colon
# HT29 colon = test system: HT29 colon
# U251 CNS = test system: U251 CNS
# 786-0 renal = test system: 786-0 renal
# IGROV1 ovarian = test system: IGROV1 ovarian
# HOP-92 NSCLC = test system: HOP-92 NSCLC
# NCI-H226 lung = test system: NCI-H226 lung
# SK-MEL-28 melanoma = test system: SK-MEL-28 melanoma
# HCT-116 colon = test system: HCT-116 colon
# OVCAR-3 ovarian = test system: OVCAR-3 ovarian
# CAKI-1 renal = test system: CAKI-1 renal
# HL-60(TB) leukemia = test system: HL-60(TB) leukemia
# MCF7 breast = test system: MCF7 breast
# RXF 393 renal = test system: RXF 393 renal
# MDA-MB-231 breast = test system: MDA-MB-231 breast
smiles,measurement,setting,value
CC(=O)O[C@H]1C(=O)[C@@]2(C)[C@H]([C@H](OC(=O)c3ccccc3)[C@]3(O)C[C@H](OC(=O)[C@H](O)[C@@H](NC(=O)c4ccoc4)c4ccccc4)C(C)=C1C3(C)C)[C@]1(OC(C)=O)CO[C@@H]1C[C@@H]2O,TGI,COLO 205 colon,16.9 µM
same,GI50,K-562 leukemia,0.0337 µM
same,TGI,K-562 leukemia,> 100 µM
same,GI50,CCRF-CEM leukemia,0.0334 µM
same,TGI,CCRF-CEM leukemia,> 100 µM
same,GI50,SK-MEL-2 melanoma,27.8 µM
same,TGI,NCI-H460 lung,28 µM
same,TGI,UACC-62 melanoma,31.9 µM
same,TGI,LOX IMVI melanoma,> 100 µM
same,TGI,UO-31 renal,> 100 µM
same,TGI,A498 renal,0.698 µM
same,TGI,SR leukemia,47 µM
same,TGI,SK-MEL-5 melanoma,0.399 µM
same,TGI,M14 melanoma,0.661 µM
same,TGI,OVCAR-4 ovarian,> 100 µM
same,TGI,HOP-62 NSCLC,16.4 µM
same,TGI,SW-620 colon,> 100 µM
same,TGI,NCI/ADR-RES ovarian,> 100 µM
same,TGI,A549 NSCLC,> 100 µM
same,TGI,SNB-19 CNS,> 100 µM
same,TGI,MDA-MB-435,0.039 µM
same,TGI,SK-OV-3 ovarian,32.7 µM
same,TGI,DU-145 prostate,> 100 µM
same,GI50,ACHN renal,0.0584 µM
same,TGI,ACHN renal,> 100 µM
same,GI50,T-47D breast,26.3 µM
same,TGI,T-47D breast,> 100 µM
same,TGI,UACC-257 melanoma,68.5 µM
same,TGI,RPMI-8226 leukemia,> 100 µM
same,GI50,HCT-15 colon,0.907 µM
same,TGI,HCT-15 colon,> 100 µM
same,TGI,OVCAR-5 ovarian,0.091 µM
same,TGI,MDA-N,0.0166 µM
same,TGI,SF-539 CNS,0.257 µM
same,GI50,SNB-75 CNS,0.0531 µM
same,TGI,SN12C renal,> 100 µM
same,TGI,SF-295 CNS,22.9 µM
same,GI50,TK-10 renal,0.164 µM
same,TGI,TK-10 renal,40.4 µM
same,TGI,OVCAR-8 ovarian,47.8 µM
same,TGI,NCI-H23 lung,31.2 µM
same,TGI,PC-3 prostate,> 100 µM
same,TGI,SF-268 CNS,> 100 µM
same,TGI,KM12 colon,14.1 µM
same,GI50,MOLT-4 leukemia,0.042 µM
same,TGI,MOLT-4 leukemia,> 100 µM
same,GI50,EKVX NSCLC,17.2 µM
same,TGI,EKVX NSCLC,> 100 µM
CC1(C)CSCC(C)(C)C(=N/N)/C1=N\N,TGI,COLO 205 colon,> 100 µM
same,TGI,K-562 leukemia,> 100 µM
same,TGI,MALME-3M melanoma,> 100 µM
same,TGI,NCI-H522 lung,> 100 µM
same,TGI,SK-MEL-2 melanoma,> 100 µM
same,TGI,HCC-2998 colon,> 100 µM
same,TGI,NCI-H460 lung,> 100 µM
same,TGI,UACC-62 melanoma,> 100 µM
same,TGI,LOX IMVI melanoma,> 100 µM
same,TGI,HT29 colon,> 100 µM
same,TGI,A498 renal,> 100 µM
same,TGI,SR leukemia,> 100 µM
same,TGI,U251 CNS,> 100 µM
same,TGI,SK-MEL-5 melanoma,> 100 µM
same,TGI,M14 melanoma,> 100 µM
same,TGI,HOP-62 NSCLC,> 100 µM
same,TGI,SW-620 colon,> 100 µM
same,TGI,786-0 renal,> 100 µM
same,TGI,NCI/ADR-RES ovarian,> 100 µM
same,TGI,A549 NSCLC,> 100 µM
same,TGI,SNB-19 CNS,> 100 µM
same,TGI,IGROV1 ovarian,> 100 µM
same,TGI,MDA-MB-435,> 100 µM
same,TGI,SK-OV-3 ovarian,> 100 µM
same,TGI,DU-145 prostate,> 100 µM
same,TGI,ACHN renal,> 100 µM
same,TGI,T-47D breast,> 100 µM
same,TGI,HOP-92 NSCLC,> 100 µM
same,TGI,NCI-H226 lung,> 100 µM
same,TGI,UACC-257 melanoma,> 100 µM
same,TGI,SK-MEL-28 melanoma,> 100 µM
same,TGI,HCT-116 colon,> 100 µM
same,TGI,OVCAR-3 ovarian,> 100 µM
same,TGI,HCT-15 colon,> 100 µM
same,TGI,OVCAR-5 ovarian,> 100 µM
same,TGI,MDA-N,> 100 µM
same,TGI,SF-539 CNS,> 100 µM
same,TGI,SNB-75 CNS,> 100 µM
same,TGI,SN12C renal,> 100 µM
same,TGI,SF-295 CNS,> 100 µM
same,TGI,TK-10 renal,> 100 µM
same,TGI,OVCAR-8 ovarian,> 100 µM
same,TGI,CAKI-1 renal,> 100 µM
same,TGI,NCI-H23 lung,> 100 µM
same,TGI,PC-3 prostate,> 100 µM
same,TGI,SF-268 CNS,> 100 µM
same,TGI,HL-60(TB) leukemia,> 100 µM
same,TGI,KM12 colon,> 100 µM
same,TGI,EKVX NSCLC,> 100 µM
same,TGI,MCF7 breast,> 100 µM
COC(=O)c1c(C(=O)OC)c2ccc(-c3ccc(Cl)cc3)nn2c1C(=O)c1ccc([N+](=O)[O-])cc1,TGI,COLO 205 colon,> 100 µM
same,TGI,K-562 leukemia,> 100 µM
same,TGI,CCRF-CEM leukemia,> 100 µM
same,TGI,RXF 393 renal,55.5 µM
same,TGI,NCI-H522 lung,37.3 µM
same,TGI,SK-MEL-2 melanoma,> 100 µM
same,TGI,HCC-2998 colon,> 100 µM
same,TGI,NCI-H460 lung,> 100 µM
same,TGI,UACC-62 melanoma,> 100 µM
same,TGI,LOX IMVI melanoma,> 100 µM
same,TGI,UO-31 renal,> 100 µM
same,TGI,HT29 colon,> 100 µM
same,TGI,A498 renal,> 100 µM
same,TGI,U251 CNS,> 100 µM
same,TGI,SK-MEL-5 melanoma,> 100 µM
same,TGI,M14 melanoma,> 100 µM
same,TGI,OVCAR-4 ovarian,> 100 µM
same,TGI,HOP-62 NSCLC,> 100 µM
same,TGI,SW-620 colon,> 100 µM
same,TGI,786-0 renal,> 100 µM
same,TGI,NCI/ADR-RES ovarian,> 100 µM
same,TGI,A549 NSCLC,> 100 µM
same,TGI,SNB-19 CNS,> 100 µM
same,TGI,MDA-MB-435,> 100 µM
same,TGI,SK-OV-3 ovarian,> 100 µM
same,TGI,MDA-MB-231 breast,> 100 µM
same,TGI,DU-145 prostate,> 100 µM
same,TGI,ACHN renal,> 100 µM
same,TGI,T-47D breast,> 100 µM
same,TGI,HOP-92 NSCLC,39.5 µM
same,TGI,NCI-H226 lung,> 100 µM
same,TGI,UACC-257 melanoma,> 100 µM
same,TGI,SK-MEL-28 melanoma,> 100 µM
same,TGI,HCT-116 colon,> 100 µM
same,TGI,OVCAR-3 ovarian,> 100 µM
same,TGI,RPMI-8226 leukemia,55.3 µM
same,TGI,HCT-15 colon,> 100 µM
same,TGI,OVCAR-5 ovarian,> 100 µM
same,TGI,MDA-N,> 100 µM
same,TGI,SF-539 CNS,> 100 µM
same,TGI,SN12C renal,> 100 µM
same,TGI,SF-295 CNS,> 100 µM
same,TGI,TK-10 renal,57.9 µM
same,TGI,OVCAR-8 ovarian,> 100 µM
same,TGI,CAKI-1 renal,76.2 µM
same,TGI,NCI-H23 lung,> 100 µM
same,TGI,PC-3 prostate,> 100 µM
same,TGI,SF-268 CNS,> 100 µM
same,TGI,HL-60(TB) leukemia,> 100 µM
same,TGI,KM12 colon,> 100 µM
same,TGI,MOLT-4 leukemia,82.6 µM
same,TGI,EKVX NSCLC,84.4 µM
same,TGI,MCF7 breast,> 100 µM
CCOC(=O)C(NC(=O)CC)(C(F)(F)F)P(=O)(OCC)OCC (stereo not drawn),TGI,K-562 leukemia,> 100 µM
same,TGI,CCRF-CEM leukemia,> 100 µM
same,TGI,MALME-3M melanoma,> 100 µM
same,TGI,NCI-H522 lung,> 100 µM
same,TGI,HCC-2998 colon,> 100 µM
same,TGI,UACC-62 melanoma,> 100 µM
same,TGI,UO-31 renal,> 100 µM
same,TGI,HT29 colon,> 100 µM
same,TGI,A498 renal,> 100 µM
same,TGI,SR leukemia,> 100 µM
same,TGI,U251 CNS,> 100 µM
same,TGI,M14 melanoma,> 100 µM
same,TGI,HOP-62 NSCLC,> 100 µM
same,TGI,MDA-MB-435,> 100 µM
same,TGI,SK-OV-3 ovarian,> 100 µM
same,TGI,MDA-MB-231 breast,> 100 µM
same,TGI,DU-145 prostate,> 100 µM
same,TGI,ACHN renal,> 100 µM
same,TGI,T-47D breast,> 100 µM
same,TGI,SK-MEL-28 melanoma,> 100 µM
same,TGI,HCT-116 colon,> 100 µM
same,TGI,RPMI-8226 leukemia,> 100 µM
same,TGI,HCT-15 colon,> 100 µM
same,TGI,MDA-N,> 100 µM
same,TGI,SF-539 CNS,> 100 µM
same,TGI,SNB-75 CNS,> 100 µM
same,TGI,SN12C renal,> 100 µM
same,TGI,SF-268 CNS,> 100 µM
same,TGI,HL-60(TB) leukemia,> 100 µM
same,TGI,MOLT-4 leukemia,> 100 µM
same,TGI,EKVX NSCLC,> 100 µM
same,TGI,MCF7 breast,> 100 µM
